Source: ChEMBL document CHEMBL5291721, “A preclinical secondary pharmacology resource illuminates target-adverse drug reaction associations of marketed drugs” (Nat Commun, 2023)

Experiments:
Bile salt export pump = Bile salt export pump (Homo sapiens, UniProt O95342); assay type: functional
[1] = target: T1, Prostaglandin G/H synthase 1 (Homo sapiens, UniProt P23219); assay type: functional
Mu-type opioid receptor = Mu-type opioid receptor (Homo sapiens, UniProt P35372)
[2] = target: 3',5'-cyclic-AMP phosphodiesterase 4A (Homo sapiens, UniProt P27815); assay type: functional
Chain of 3',5'-cyclic-AMP phosphodiesterase 4A (P27815 whole entry): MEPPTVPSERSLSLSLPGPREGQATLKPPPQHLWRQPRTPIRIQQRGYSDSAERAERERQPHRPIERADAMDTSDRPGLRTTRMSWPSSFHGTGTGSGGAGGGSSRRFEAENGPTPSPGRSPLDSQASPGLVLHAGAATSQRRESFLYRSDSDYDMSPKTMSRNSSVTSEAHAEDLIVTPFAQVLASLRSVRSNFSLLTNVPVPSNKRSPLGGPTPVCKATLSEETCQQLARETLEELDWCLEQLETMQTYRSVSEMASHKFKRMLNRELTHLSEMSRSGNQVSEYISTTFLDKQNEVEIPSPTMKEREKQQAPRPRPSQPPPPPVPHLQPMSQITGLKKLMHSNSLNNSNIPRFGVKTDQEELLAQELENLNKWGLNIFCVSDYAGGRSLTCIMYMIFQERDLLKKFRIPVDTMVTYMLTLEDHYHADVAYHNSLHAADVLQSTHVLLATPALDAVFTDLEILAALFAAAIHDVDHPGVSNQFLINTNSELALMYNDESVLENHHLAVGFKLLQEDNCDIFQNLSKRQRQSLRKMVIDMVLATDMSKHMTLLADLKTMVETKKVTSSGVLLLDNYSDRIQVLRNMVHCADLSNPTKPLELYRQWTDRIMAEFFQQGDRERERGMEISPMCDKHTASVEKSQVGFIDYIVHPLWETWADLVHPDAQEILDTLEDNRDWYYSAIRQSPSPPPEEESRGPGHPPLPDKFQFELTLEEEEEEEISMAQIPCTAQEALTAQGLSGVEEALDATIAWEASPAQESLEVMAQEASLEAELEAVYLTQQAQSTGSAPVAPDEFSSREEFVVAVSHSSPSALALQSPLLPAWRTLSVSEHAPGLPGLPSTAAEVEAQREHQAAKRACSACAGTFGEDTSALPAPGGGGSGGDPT

[3] = target: cGMP-inhibited 3',5'-cyclic phosphodiesterase 3A (Homo sapiens, UniProt Q14432); assay type: functional
Chain of cGMP-inhibited 3',5'-cyclic phosphodiesterase 3A (Q14432 whole entry): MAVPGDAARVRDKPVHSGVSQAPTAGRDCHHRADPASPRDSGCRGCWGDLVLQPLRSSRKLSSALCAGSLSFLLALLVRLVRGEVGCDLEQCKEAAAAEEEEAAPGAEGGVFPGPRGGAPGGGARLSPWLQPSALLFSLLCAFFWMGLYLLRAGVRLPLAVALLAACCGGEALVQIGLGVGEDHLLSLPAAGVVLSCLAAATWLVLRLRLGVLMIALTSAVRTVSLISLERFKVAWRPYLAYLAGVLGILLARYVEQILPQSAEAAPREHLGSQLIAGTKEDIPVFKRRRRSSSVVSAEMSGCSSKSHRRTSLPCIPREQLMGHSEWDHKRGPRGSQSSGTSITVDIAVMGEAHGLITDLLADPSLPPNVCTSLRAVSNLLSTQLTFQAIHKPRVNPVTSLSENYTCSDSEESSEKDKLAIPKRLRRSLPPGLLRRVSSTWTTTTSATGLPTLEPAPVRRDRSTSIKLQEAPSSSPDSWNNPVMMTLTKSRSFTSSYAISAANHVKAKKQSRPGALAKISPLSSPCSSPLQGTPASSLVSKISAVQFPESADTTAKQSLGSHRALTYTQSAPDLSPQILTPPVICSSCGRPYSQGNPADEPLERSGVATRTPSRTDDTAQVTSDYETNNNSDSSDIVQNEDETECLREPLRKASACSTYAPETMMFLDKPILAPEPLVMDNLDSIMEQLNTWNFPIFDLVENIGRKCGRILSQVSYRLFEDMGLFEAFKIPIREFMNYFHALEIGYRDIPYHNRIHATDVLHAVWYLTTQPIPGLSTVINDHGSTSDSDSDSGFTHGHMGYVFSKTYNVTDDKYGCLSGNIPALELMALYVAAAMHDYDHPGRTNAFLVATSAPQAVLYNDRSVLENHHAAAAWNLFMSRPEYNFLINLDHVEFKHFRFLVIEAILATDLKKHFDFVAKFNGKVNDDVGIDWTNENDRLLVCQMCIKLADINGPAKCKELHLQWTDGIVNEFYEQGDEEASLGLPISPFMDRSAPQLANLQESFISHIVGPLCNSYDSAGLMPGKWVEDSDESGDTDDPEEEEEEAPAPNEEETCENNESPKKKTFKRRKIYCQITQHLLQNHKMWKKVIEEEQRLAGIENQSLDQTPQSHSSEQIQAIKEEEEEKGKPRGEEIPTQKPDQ

Thromboxane A2 receptor [4] = target: T2, Thromboxane A2 receptor (Homo sapiens, UniProt P21731); assay type: functional, cell-based
T2 sequence (P21731 whole entry): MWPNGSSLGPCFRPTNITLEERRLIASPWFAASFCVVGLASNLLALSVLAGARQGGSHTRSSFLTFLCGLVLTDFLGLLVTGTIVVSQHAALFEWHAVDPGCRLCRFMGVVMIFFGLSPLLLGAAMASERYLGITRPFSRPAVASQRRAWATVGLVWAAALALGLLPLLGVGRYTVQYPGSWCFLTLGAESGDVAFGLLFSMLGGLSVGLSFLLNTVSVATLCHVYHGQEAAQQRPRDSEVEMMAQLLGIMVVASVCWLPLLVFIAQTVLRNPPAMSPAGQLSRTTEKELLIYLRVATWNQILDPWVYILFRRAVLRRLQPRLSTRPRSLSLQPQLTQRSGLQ

Histamine H3 receptor = Histamine H3 receptor (Homo sapiens, UniProt Q9Y5N1)
[5] = target: 5-hydroxytryptamine receptor 2B (Homo sapiens, UniProt P41595); assay type: functional, cell-based
Chain of 5-hydroxytryptamine receptor 2B (P41595 whole entry): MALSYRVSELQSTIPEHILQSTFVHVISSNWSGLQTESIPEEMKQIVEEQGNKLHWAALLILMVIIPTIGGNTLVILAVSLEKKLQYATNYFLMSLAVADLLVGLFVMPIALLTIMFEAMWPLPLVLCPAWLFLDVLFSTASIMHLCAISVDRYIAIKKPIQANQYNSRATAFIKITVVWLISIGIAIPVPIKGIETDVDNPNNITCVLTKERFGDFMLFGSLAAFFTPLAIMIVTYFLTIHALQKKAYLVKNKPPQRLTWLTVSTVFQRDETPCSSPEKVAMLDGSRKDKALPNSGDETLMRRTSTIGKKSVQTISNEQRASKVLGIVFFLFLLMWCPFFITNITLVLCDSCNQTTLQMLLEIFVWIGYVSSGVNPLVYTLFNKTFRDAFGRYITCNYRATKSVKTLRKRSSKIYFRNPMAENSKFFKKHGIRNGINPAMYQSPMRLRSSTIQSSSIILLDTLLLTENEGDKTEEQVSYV

[6] = target: T3, 5-hydroxytryptamine receptor 1A (Homo sapiens, UniProt P08908)
T3 sequence (P08908 whole entry): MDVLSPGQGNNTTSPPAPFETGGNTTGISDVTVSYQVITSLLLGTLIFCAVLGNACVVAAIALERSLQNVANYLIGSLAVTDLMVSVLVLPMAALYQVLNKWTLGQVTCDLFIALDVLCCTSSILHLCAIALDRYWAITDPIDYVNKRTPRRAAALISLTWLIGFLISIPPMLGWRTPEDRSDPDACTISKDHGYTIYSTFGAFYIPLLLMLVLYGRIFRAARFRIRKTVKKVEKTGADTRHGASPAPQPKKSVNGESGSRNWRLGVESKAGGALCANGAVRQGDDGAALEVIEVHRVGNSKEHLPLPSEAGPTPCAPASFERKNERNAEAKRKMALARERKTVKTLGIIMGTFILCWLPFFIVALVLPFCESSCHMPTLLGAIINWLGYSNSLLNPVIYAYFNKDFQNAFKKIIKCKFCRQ

D(3) dopamine receptor = D(3) dopamine receptor (Homo sapiens, UniProt P35462)
[7] = target: T4, Muscarinic acetylcholine receptor M2 (Homo sapiens, UniProt P08172)
T4 sequence (P08172 whole entry): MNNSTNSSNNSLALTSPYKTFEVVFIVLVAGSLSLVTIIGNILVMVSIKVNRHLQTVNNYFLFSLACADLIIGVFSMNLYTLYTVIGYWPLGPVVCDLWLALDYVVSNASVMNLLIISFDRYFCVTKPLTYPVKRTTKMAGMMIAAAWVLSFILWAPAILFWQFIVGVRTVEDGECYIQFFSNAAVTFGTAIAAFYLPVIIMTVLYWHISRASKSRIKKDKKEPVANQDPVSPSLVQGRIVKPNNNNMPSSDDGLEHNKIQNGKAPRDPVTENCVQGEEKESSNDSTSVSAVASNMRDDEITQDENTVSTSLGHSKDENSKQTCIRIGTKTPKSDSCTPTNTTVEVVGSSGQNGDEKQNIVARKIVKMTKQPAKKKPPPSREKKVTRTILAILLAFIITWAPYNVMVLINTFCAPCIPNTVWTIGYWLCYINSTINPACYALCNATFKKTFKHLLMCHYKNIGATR

[8] = target: Sodium-dependent noradrenaline transporter (Homo sapiens, UniProt P23975)
Chain of Sodium-dependent noradrenaline transporter (P23975 whole entry): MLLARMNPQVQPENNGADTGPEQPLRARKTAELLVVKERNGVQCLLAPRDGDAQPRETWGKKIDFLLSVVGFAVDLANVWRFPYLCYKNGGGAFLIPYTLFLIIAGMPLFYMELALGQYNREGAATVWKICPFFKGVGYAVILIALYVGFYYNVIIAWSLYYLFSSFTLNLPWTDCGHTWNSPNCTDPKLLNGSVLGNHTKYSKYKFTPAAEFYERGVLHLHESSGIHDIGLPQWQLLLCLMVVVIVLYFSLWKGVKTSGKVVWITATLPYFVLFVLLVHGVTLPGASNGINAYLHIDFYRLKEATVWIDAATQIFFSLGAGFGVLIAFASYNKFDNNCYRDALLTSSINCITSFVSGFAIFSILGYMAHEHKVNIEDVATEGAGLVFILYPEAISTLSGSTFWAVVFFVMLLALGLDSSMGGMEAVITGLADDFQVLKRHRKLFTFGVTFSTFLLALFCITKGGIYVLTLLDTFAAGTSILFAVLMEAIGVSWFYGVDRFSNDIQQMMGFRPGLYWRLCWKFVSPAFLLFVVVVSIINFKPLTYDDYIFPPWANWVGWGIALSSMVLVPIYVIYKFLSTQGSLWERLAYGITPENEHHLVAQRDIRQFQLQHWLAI

[9] = target: T1, Prostaglandin G/H synthase 1; assay type: functional; remark: listed apart in the source
D(1A) dopamine receptor = D(1A) dopamine receptor (Homo sapiens, UniProt P21728)
[10] = target: T5, Amine oxidase [flavin-containing] A (Homo sapiens, UniProt P21397); assay type: functional
T5 sequence (P21397 whole entry): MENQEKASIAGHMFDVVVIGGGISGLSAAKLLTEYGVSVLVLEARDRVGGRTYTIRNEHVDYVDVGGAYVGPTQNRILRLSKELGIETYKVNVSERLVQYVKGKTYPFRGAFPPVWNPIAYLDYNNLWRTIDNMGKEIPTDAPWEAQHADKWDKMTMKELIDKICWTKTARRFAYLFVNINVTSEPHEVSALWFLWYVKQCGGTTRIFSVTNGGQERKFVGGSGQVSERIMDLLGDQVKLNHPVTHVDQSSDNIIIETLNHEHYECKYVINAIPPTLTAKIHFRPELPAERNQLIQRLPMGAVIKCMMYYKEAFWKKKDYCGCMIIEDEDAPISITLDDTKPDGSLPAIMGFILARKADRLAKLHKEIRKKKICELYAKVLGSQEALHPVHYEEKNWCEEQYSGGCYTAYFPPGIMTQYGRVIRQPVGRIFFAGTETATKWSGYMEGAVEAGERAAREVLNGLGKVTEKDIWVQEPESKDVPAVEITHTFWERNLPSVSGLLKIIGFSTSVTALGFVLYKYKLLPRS

Acetylcholinesterase = Acetylcholinesterase (Homo sapiens, UniProt P22303); assay type: functional
Chain of Acetylcholinesterase (P22303 whole entry): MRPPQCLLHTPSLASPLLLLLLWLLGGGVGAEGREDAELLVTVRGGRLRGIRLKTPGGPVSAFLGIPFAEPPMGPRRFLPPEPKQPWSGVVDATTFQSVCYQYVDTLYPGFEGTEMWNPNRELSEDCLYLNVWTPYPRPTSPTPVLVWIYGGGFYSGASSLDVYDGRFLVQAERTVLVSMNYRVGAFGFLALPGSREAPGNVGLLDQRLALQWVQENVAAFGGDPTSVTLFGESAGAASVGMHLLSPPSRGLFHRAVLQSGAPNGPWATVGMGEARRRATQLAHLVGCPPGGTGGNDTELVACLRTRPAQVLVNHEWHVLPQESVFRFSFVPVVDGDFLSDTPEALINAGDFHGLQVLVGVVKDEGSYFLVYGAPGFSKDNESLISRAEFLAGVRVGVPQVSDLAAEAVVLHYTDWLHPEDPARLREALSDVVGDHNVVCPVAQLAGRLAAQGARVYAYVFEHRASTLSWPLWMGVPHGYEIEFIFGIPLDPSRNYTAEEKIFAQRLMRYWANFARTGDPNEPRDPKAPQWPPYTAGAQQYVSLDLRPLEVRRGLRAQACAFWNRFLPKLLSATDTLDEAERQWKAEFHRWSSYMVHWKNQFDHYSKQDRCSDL

[11] = target: Voltage-gated inwardly rectifying potassium channel KCNH2 (Homo sapiens, UniProt Q12809); assay type: functional
Thromboxane A2 receptor [12] = target: T2, Thromboxane A2 receptor; assay type: functional, cell-based; remark: listed apart in the source
Also: assay procedure not described here.

Chain of Mu-type opioid receptor (P35372 whole entry): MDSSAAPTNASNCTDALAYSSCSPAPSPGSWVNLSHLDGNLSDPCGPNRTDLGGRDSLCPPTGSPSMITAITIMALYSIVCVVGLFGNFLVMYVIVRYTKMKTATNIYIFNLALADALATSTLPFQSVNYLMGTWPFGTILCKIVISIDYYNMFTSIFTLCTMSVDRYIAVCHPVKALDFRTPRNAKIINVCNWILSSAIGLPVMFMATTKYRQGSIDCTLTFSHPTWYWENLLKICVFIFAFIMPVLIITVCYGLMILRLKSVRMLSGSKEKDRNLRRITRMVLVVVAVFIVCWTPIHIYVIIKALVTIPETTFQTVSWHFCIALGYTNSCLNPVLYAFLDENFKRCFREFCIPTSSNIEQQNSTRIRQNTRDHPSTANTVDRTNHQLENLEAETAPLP
T1 sequence (P23219 whole entry): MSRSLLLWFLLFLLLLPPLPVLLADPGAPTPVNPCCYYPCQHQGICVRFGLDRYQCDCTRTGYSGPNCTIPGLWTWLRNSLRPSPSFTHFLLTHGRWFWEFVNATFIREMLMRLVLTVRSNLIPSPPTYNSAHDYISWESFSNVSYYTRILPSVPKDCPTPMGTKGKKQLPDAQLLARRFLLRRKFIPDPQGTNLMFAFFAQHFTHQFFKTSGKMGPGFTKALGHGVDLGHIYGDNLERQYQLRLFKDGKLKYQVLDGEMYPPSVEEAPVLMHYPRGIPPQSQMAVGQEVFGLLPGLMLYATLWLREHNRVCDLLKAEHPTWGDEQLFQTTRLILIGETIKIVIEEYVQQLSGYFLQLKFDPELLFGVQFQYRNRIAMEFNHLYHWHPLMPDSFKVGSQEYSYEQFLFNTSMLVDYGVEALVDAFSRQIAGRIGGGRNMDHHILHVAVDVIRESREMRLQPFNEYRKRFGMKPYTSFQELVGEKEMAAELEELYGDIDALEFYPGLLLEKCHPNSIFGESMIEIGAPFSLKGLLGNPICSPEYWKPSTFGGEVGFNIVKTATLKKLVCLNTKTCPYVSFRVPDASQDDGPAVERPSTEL

Structure (SMILES) | AC50 (Bile salt export pump) [µM] | AC50 [1] [µM] | AC50 (Mu-type opioid receptor) [µM] | AC50 [2] [µM] | AC50 [3] [µM] | AC50 (Thromboxane A2 receptor [4]) [µM] | AC50 (Histamine H3 receptor) [µM] | AC50 [5] [µM] | AC50 [6] [µM] | AC50 (D(3) dopamine receptor) [µM] | AC50 [7] [µM] | AC50 [8] [µM] | AC50 [9] [µM] | AC50 (D(1A) dopamine receptor) [µM] | AC50 [10] [µM] | AC50 (Acetylcholinesterase) [µM] | AC50 [11] [µM] | AC50 (Thromboxane A2 receptor [12]) [µM]
C[C@@H](Oc1cc(-c2cnn(C3CCNCC3)c2)cnc1N)c1c(Cl)ccc(F)c1Cl [CRIZOTINIB] | 154 |  |  |  |  |  |  |  |  |  |  |  |  |  |  |  |  | 
C/C=C/C/C=C/CCC(=O)[C@H]1O[C@H]1C(N)=O [CERULENIN] |  | > 30 | > 30 | > 30 | > 30 | > 30 | > 30 | > 30 | > 30 | > 30 | > 30 | > 30 | 15.5 | > 30 | > 30 | > 30 | > 30 | > 30
CN(C)CCC[C@@]1(c2ccc(F)cc2)OCc2cc(C#N)ccc21 [ESCITALOPRAM] | > 300 |  |  |  |  |  |  |  |  |  |  |  |  |  |  |  |  | 
C=C[C@H]1C[N@@]2CC[C@H]1C[C@@H]2[C@@H](O)c1ccnc2ccc(OC)cc12 [QUINIDINE] | 64 |  |  |  |  |  |  |  |  |  |  |  |  |  |  |  |  | 
C[C@]1(Cn2ccnn2)[C@H](C(=O)O)N2C(=O)C[C@H]2S1(=O)=O [TAZOBACTAM] |  | > 30 | > 30 | > 30 | > 30 | > 30 | > 30 | > 30 | > 30 | > 30 | > 30 | > 30 | > 30 | > 30 | > 30 | > 30 | > 30 | > 30
CC(C)OC(=O)CCC/C=C\C[C@@H]1[C@@H](/C=C/C(F)(F)COc2ccccc2)[C@H](O)C[C@@H]1O [TAFLUPROST] |  | > 30 | > 30 | > 30 | > 30 | > 30 | > 30 | > 30 | > 30 | > 30 | > 30 | > 30 | > 30 | > 30 | > 30 | > 30 | > 30 | 29.6
C=CCN1CC[C@]23CCCC[C@H]2[C@H]1Cc1ccc(O)cc13 [LEVALLORPHAN] |  | > 30 | 0.003 | > 30 | > 30 | > 30 | > 30 | > 30 | 27.6 | 23.4 | 8.91 | > 30 | 8.54 | > 30 | > 30 | 16.7 | 14 | > 30
CC(CCc1ccccc1)NCC(O)c1ccc(O)c(C(N)=O)c1 (centres undefined) [LABETALOL] |  | > 30 | 2.42 | > 30 | > 30 | > 30 | > 30 | > 30 | 0.104 | 5.85 | > 30 | 4.04 | > 30 | > 30 | > 30 | > 30 | > 30 | > 30
N[C@@H](CC(=O)N1CCn2c(nnc2C(F)(F)F)C1)Cc1cc(F)c(F)cc1F [SITAGLIPTIN] | > 300 |  |  |  |  |  |  |  |  |  |  |  |  |  |  |  |  | 
CC(C)N(CCC(C(N)=O)(c1ccccc1)c1ccccn1)C(C)C (centres undefined) [DISOPYRAMIDE] | > 300 |  |  |  |  |  |  |  |  |  |  |  |  |  |  |  |  | 
COc1c2ccoc2cc2oc(=O)ccc12 [BERGAPTEN] |  | > 30 | > 30 | > 30 | > 30 | > 30 | > 30 | > 30 | > 30 | > 30 | > 30 | > 30 | > 30 | > 30 | > 10 | > 30 | > 30 | > 30
Nc1ccc(C(=O)Oc2ccccc2)c(O)c1 [PHENYL AMINOSALICYLATE] |  | > 30 | > 30 | 14.5 | > 30 | > 30 | > 30 | > 30 | > 30 | > 30 | > 30 | 0.777 | > 30 | > 30 | > 30 | > 30 | > 30 | 17.2
